14 compounds from patent US9045491B2, “Thienyl [3,2-D] pyrimidin-4-one compounds, preparation method, pharmaceutical compositions and use thereof” (SHANGHAI INSTITUTE OF MATERIA MEDICA, CHINESE ACADEMY OF …, priority 2011, dated 2015) can be followed below.

Holding throughout (format): biochemical
The target in experiment [1] is T1, human DPP IV (Homo sapiens, UniProt P27487).
T1 construct: extracellular fragment of protease DPP IV (aa29-766); made in house; host or cells: baculovirus expression system Bac-to-Bac
Put plainly: DPP IV activity screening (Ala-Pro-AMC fluorescence). As for the experimental part:
(§1) Screening method: dipeptidyl peptidase IV (DPP IV) activity screening, dipeptidyl peptidase 7 (DPP 7), dipeptidyl peptidase 8 (DPP 8) activity screening, and dipeptidyl peptidase 9 (DPP 9) activity screening.
Instruments: Microplate Reader (PerkinElmer, USA).
The linear change of fluorescence value at 460 nm in unit time was dynamically measured and DPP IV activity was obtained by calculation.
(§2) Sample treatment: the sample was dissolved in DMSO and stored in low temperature. The concentration of DMSO in the final system was controlled so that the detected activity was not affected.
(§3) The activity of sample was tested under the selected single concentration from preliminary screening, for example, 20 μg/mL. […] The software for calculation was Graphpad Prism 4 and the model used for fitting was sigmoidal dose-response (variable slope). For most inhibitor screening models, the bottom and top of the fitting curve were set to 0 and 100.

Experiment [2] has as its target dipeptidyl peptidase 7 (DPP 7) (Homo sapiens, UniProt Q9UHL4). Put plainly: DPP 7 activity screening. As to conditions: N.I. = No Inhibition. The method, then: as §1, §2, §3
Experiment [3] addresses T2, human DPP 8 (Homo sapiens, UniProt Q6V1X1).
T2 construct: made in house; host or cells: insect cells, baculovirus Bac-to-Bac
Put plainly: DPP 8 activity screening (Ala-Pro-AMC fluorescence). The note with it: N.I. = No Inhibition.
Text: as §1
(§4) Materials: human DPP IV, obtained extracellular fragment of protease DPP IV (aa29-766), was expressed and purified by our laboratory using baculovirus expression system Bac-to-Bac (purchased from GIBCO company) in accordance with the conventional experimental technology; human DPP 8 was obtained in insect cells by our laboratory using baculovirus expression system Bac-to-Bac (purchased from GIBCO company) in accordance with the conventional experimental technology; Human DPP 9 was obtained in insect cells by our laboratory using baculovirus expression system Bac-to-Bac (purchased from GIBCO company) in accordance with the conventional experimental technology; and the substrate Ala-Pro-AMC was synthesized by GL Biochem (Shanghai) Ltd.
(§5) Principle of Activity test: DPP IV, DPP 8 and DPP 9 can specifically hydrolyze the substrate Ala-Pro-AMC to form product AMC, and AMC is excited by 355 nm of UV light to generate 460 nm of emission light. The linear change of fluorescence value at 460 nm in unit time was dynamically measured and DPP IV activity was obtained by calculation.
as §2, §3

The target in experiment [4] is T3, Human DPP 9 (Homo sapiens, UniProt Q86TI2).
T3 construct: made in house; host or cells: insect cells, baculovirus Bac-to-Bac
The experiment can be described thus: DPP 9 activity screening (Ala-Pro-AMC fluorescence). The note with it: N.I. = No Inhibition.
Text: as §1, §4, §5, §2, §3

Experiment [5] addresses T4, FAP (Homo sapiens, UniProt Q12884).
T4 sequence (Q12884 1-760): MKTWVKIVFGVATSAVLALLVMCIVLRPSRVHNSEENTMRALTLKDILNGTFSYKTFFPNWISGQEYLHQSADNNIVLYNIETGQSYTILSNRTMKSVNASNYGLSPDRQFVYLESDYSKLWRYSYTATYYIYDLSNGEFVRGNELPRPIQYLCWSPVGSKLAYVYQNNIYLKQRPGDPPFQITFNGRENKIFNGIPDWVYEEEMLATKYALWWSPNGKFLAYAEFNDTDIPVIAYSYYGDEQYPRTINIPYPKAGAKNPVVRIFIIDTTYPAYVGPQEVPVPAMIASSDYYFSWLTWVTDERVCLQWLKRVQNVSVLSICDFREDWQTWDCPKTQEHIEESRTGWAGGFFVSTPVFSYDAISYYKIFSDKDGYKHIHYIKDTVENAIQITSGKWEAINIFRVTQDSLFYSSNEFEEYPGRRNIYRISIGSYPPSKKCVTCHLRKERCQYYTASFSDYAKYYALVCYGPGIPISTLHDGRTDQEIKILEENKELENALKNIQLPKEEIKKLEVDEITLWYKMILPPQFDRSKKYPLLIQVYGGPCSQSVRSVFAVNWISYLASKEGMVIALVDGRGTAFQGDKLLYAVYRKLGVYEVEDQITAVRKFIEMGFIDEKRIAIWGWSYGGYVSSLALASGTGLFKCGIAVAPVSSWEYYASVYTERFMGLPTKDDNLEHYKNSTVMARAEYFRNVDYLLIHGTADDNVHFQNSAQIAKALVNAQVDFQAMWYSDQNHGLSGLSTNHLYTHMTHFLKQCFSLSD
The experiment can be described thus: FAP inhibition (Table 1). The note with it: N.I. = No Inhibition.

Molecules are shown by their SMILES.

T3 sequence (Q86TI2 whole entry): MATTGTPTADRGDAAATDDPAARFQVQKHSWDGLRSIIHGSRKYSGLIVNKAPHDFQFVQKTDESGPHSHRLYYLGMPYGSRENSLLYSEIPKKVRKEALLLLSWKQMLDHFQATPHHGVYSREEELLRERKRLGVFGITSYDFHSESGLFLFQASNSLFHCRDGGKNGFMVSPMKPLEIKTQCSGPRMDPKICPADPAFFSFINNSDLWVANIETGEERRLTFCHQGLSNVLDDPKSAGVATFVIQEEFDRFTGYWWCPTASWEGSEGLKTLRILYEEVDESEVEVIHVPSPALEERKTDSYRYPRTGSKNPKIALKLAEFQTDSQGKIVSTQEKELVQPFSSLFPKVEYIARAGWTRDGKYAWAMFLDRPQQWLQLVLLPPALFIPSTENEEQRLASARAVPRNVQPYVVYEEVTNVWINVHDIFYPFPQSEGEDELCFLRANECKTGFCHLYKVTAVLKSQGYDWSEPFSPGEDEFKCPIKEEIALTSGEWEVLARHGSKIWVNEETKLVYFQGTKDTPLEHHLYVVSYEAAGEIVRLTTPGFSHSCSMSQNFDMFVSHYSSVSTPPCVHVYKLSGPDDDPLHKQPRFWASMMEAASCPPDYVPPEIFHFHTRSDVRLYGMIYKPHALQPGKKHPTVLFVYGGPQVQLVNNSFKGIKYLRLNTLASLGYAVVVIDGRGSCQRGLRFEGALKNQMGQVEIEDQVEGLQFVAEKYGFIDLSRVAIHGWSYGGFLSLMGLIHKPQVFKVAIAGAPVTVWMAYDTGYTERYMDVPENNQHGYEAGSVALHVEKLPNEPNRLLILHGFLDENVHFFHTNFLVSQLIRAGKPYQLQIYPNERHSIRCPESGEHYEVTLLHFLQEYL
T2 sequence (Q6V1X1 whole entry): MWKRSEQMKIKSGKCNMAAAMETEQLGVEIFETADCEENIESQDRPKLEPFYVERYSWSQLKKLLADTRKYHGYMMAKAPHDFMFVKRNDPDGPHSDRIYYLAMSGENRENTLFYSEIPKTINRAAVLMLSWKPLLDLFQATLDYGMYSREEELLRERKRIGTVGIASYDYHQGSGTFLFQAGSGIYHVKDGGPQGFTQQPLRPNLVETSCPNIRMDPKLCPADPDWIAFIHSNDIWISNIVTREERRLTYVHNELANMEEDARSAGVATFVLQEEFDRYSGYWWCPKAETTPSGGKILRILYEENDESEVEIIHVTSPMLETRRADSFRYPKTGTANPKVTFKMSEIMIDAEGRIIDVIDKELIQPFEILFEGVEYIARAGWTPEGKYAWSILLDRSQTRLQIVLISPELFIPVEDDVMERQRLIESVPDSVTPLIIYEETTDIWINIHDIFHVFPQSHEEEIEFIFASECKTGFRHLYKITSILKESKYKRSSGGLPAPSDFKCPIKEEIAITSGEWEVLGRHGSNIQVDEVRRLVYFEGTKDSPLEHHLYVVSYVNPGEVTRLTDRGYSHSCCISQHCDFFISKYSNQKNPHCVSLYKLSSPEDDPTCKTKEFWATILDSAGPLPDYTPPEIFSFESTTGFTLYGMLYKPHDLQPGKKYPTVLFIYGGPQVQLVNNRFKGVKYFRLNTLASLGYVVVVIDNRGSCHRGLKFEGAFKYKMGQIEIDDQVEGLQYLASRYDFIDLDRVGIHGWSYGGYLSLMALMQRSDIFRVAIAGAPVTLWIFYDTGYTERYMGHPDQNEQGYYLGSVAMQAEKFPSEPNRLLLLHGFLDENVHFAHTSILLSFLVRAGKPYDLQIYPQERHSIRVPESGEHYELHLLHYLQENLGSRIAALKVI
T1 sequence (P27487 29-766): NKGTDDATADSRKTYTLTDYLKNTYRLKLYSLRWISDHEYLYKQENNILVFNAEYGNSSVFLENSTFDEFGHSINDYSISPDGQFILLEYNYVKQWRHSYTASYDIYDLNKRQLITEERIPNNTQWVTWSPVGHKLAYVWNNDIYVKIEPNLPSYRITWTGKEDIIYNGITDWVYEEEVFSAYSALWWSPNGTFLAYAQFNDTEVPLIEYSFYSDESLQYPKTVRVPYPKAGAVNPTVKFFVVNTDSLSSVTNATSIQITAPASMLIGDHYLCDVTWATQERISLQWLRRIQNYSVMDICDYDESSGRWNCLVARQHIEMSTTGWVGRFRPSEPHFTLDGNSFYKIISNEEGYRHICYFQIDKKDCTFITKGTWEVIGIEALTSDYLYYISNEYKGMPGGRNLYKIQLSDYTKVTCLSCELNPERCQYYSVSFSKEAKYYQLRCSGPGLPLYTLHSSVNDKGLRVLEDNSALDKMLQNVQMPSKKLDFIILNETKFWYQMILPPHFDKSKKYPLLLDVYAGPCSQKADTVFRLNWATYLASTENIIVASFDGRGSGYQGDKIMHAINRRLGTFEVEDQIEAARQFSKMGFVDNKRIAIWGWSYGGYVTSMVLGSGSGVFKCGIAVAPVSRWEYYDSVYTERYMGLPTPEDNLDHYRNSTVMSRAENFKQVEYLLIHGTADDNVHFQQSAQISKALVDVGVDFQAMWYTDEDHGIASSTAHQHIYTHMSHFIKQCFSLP

For `COC(=O)[C@H](Cc1ccc(O)cc1)NC(=O)c1cc2nc(N3CCC[C@@H](N)C3)n(Cc3ccccc3C#N)c(=O)c2s1` [Compound 101, (S)-methyl 2-(2-((R)-3-aminopiperidin-1-yl)-3-(2-cyanobenzyl)-4-oxo-3,4-dihydrothieno[3,2-d]pyrimidine-6-carboxamido)-3-(4-hydroxyphenyl)-propanoate], the IC50 is 0.0306 µM in experiment [1], 13.5 µM in experiment [3], 14.8 µM in experiment [4] and 42 µM in experiment [5]. In addition, in experiment [2], the “DPP 7 IC50” value is recorded as “N.I”.
With `COC(=O)CNC(=O)c1cc2nc(N3CCC[C@@H](N)C3)n(Cc3ccccc3C#N)c(=O)c2s1` [Compound 99, (R)-methyl 2-(2-(3-aminopiperidin-1-yl)-3-(2-cyanobenzyl)-4-oxo-3,4-dihydrothieno[3,2-d]pyrimidine-6-carboxamido)acetate], the half-maximal inhibitory concentration (IC50) in experiment [1] was determined as 0.0247 µM; in experiment [3], 66 µM; in experiment [4] it was 179 µM; in experiment [5], 178 µM. For the same compound, the “DPP 7 IC50” value in experiment [2] is recorded as “N.I”.
Regarding `N#Cc1ccccc1Cn1c(N2CCC[C@@H](N)C2)nc2cc(COCc3ccccc3)sc2c1=O` [Compound 94, (R)-2-((2-(3-aminopiperidin-1-yl)-6-((benzyloxy)methyl)-4-oxothieno-[3,2-d]pyrimidin-3(4H)-yl)methyl)-benzonitrile], the IC50 in experiment [1] was 0.0104 µM; in experiment [3], 34.2 µM; in experiment [4], 55 µM; in experiment [5], 96.8 µM. For the same compound, the “DPP 7 IC50” value in experiment [2] is given as “N.I”.
For the compound `N#Cc1ccccc1Cn1c(N2CCC[C@@H](N)C2)nc2c(CO)csc2c1=O` [Compound 43, (R)-2-((2-(3-aminopiperidin-1-yl)-7-(hydroxymethyl)-4-oxothieno[3,2-d]-pyrimidin-3(4H)-yl)methyl)benzonitrile], the IC50 in experiment [1] was found to be 0.0189 µM. In addition, the “DPP 7 IC50” value in experiment [2] was “N.I”. The “DPP 8 IC50” value in experiment [3] is recorded as “N.I”. For the same compound, in experiment [4], the “DPP 9 IC50” value is reported as “N.I”. In experiment [5], the “FAP IC50” value is “N.I”.
Regarding `N#Cc1ccccc1Cn1c(N2CCC[C@@H](N)C2)nc2c(C(=O)NCC3COC3)csc2c1=O` [Compound 82, (R)-2-(3-aminopiperidin-1-yl)-3-(2-cyanobenzyl)-N-(oxetan-3-ylmethyl)-4-oxo-3,4-dihydrothieno[3,2-d]pyrimidine-7-carboxamide], the IC50 in experiment [1] came out at 0.0659 µM; in experiment [3], 18.1 µM; in experiment [5], 16.5 µM. The “DPP 7 IC50” value in experiment [2] is “N.I”. Further, in experiment [4], the “DPP 9 IC50” value is “N.I”.
`CCCCNC(=O)c1cc2nc(N3CCC[C@@H](N)C3)n(Cc3ccccc3C#N)c(=O)c2s1` [Compound 117, (R)-2-(3-aminopiperidin-1-yl)-N-butyl-3-(2-cyanobenzyl)-4-oxo-3,4-dihydrothieno[3,2-d]pyrimidine-6-carboxamide]: the IC50 in experiment [1] was 0.016 µM; in experiment [3], 63.2 µM; in experiment [4], 78.5 µM; in experiment [5] it was 118 µM. Moreover, the “DPP 7 IC50” value in experiment [2] is given as “N.I”.
Consider `CC(=O)Nc1csc2c(=O)n(Cc3ccccc3C#N)c(N3CCC[C@@H](N)C3)nc12` [Compound 86, (R)-N-(2-(3-aminopiperidin-1-yl)-3-(2-cyanobenzyl)-4-oxo-3,4-dihydrothieno-[3,2-d]pyrimidin-7-yl)acetamide], for which the IC50 is 0.0208 µM in experiment [1], 318 µM in experiment [3] and 121 µM in experiment [5]. Also, the “DPP 7 IC50” value in experiment [2] is on record as “N.I”. In addition, the “DPP 9 IC50” value in experiment [4] is reported as “N.I”.
Consider `COC(=O)[C@H](Cc1ccccc1)NC(=O)c1csc2c(=O)n(Cc3ccccc3C#N)c(N3CCC[C@@H](N)C3)nc12` [Compound 67, (S)-methyl 2-(2-((R)-3-aminopiperidin-1-yl)-3-(2-cyanobenzyl)-4-oxo-3,4-dihydrothieno[3,2-d]pyrimidine-7-carboxamido)-3-phenylpropanoate], for which the IC50 in experiment [1] was determined as 0.0137 µM; in experiment [3] it was 24.9 µM; in experiment [4], 53 µM; in experiment [5] it was 28.1 µM. The “DPP 7 IC50” value in experiment [2] is reported as “N.I”.
For `N#Cc1ccccc1Cn1c(N2CCC[C@@H](N)C2)nc2c(C(=O)N3CCCC3)csc2c1=O` [Compound 76, (R)-2-((2-(3-aminopiperidin-1-yl)-4-oxo-7-(pyrrolidine-1-carbonyl)thieno-[3,2-d]pyrimidin-3(4H)-yl)methyl)-benzonitrile], in experiment [1], the IC50 came out at 0.0816 µM. For the same compound, in experiment [2], the “DPP 7 IC50” value was “N.I”. For the same compound, in experiment [3], the “DPP 8 IC50” value is “N.I”. Further, the “DPP 9 IC50” value in experiment [4] was “N.I”. For the same compound, the “FAP IC50” value in experiment [5] was “N.I”.
Regarding `N#Cc1ccccc1Cn1c(N2CCC[C@@H](N)C2)nc2cc(C(=O)NCc3cccc(C(F)(F)F)c3)sc2c1=O` [Compound 120, (R)-2-(3-aminopiperidin-1-yl)-3-(2-cyanobenzyl)-4-oxo-N-(3-(trifluoromethyl)benzyl)-3,4-dihydrothieno[3,2-d]pyrimidine-6-carboxamide], the IC50 in experiment [1] was found to be 0.0286 µM; in experiment [3], 53.8 µM; in experiment [4] it was 49.7 µM; in experiment [5] it was 87.4 µM. Moreover, the “DPP 7 IC50” value in experiment [2] is reported as “N.I”.
As to `N#Cc1ccccc1Cn1c(N2CCC[C@@H](N)C2)nc2cc(C(=O)NCC3CC3)sc2c1=O` [Compound 106, (R)-2-(3-aminopiperidin-1-yl)-3-(2-cyanobenzyl)-N-(cyclopropylmethyl)-4-oxo-3,4-dihydrothieno[3,2-d]pyrimidine-6-carboxamide], the IC50 in experiment [1] stood at 0.0183 µM; in experiment [3] it was 76.2 µM; in experiment [4], 127 µM; in experiment [5], 117 µM. The “DPP 7 IC50” value in experiment [2] was “N.I”.
In experiment [1], `CC(=O)OCc1cc2nc(N3CCC[C@@H](N)C3)n(Cc3ccccc3C#N)c(=O)c2s1` [Compound 96, (R)-(2-(3-aminopiperidin-1-yl)-3-(2-cyanobenzyl)-4-oxo-3,4-dihydrothieno-[3,2-d]pyrimidin-6-yl)methyl acetate] came in with an IC50 of 0.0116 µM. Besides, in experiment [2], the “DPP 7 IC50” value is “N.I”. Besides, the “DPP 8 IC50” value in experiment [3] is listed as “N.I”. The “DPP 9 IC50” value in experiment [4] was “N.I”. In experiment [5], the “FAP IC50” value is on record as “N.I”.
`N#Cc1ccccc1Cn1c(N2CCC[C@@H](N)C2)nc2cc(C(=O)NCc3ccccc3F)sc2c1=O` [Compound 109, (R)-2-(3-aminopiperidin-1-yl)-3-(2-cyanobenzyl)-N-(2-fluorobenzyl)-4-oxo-3,4-dihydrothieno[3,2-d]pyrimidine-6-carboxamide]: the IC50 stood at 0.0156 µM in experiment [1], 62.1 µM in experiment [3], 91.8 µM in experiment [4] and 101 µM in experiment [5]. For the same compound, the “DPP 7 IC50” value in experiment [2] is reported as “N.I”.
Take `N#Cc1ccccc1Cn1c(N2CCC[C@@H](N)C2)nc2cc(C(=O)NCc3ccc(C(F)(F)F)cc3)sc2c1=O` [Compound 103, (R)-2-(3-aminopiperidin-1-yl)-3-(2-cyanobenzyl)-4-oxo-N-(4-(trifluoromethyl)benzyl)-3,4-dihydrothieno[3,2-d]pyrimidine-6-carboxamide]: the IC50 amounted to 0.0538 µM in experiment [1], 86.8 µM in experiment [4] and 145 µM in experiment [5]. In addition, the “DPP 7 IC50” value in experiment [2] was “N.I”. The “DPP 8 IC50” value in experiment [3] was “N.I”.
